{"source": "patent US7355047B2", "about": "“Substituted quinolone carboxylic acids, their derivatives, site of action, and uses thereof” (The Regents of the University of California, priority 2002, dated 2008)", "key": {"[1]": {"tested_on": "GABAA receptor complex (GRC)", "assay": "[35S]TBPS binding assay, rat cortex", "conditions": "2 nM [35S]TBPS"}, "[2]": {"tested_on": "GABA-gated chloride channels", "assay": "Electrophysiological Assay 1, whole cell patch-clamp of hippocampal neurons", "format": "cell-based", "conditions": "C3 5 μM; GABA 10 μM; embryonic rat hippocampal neurons; FIG. 1", "method": "Pregnant Sprague-Dawley rats, incubating embryos of 17-19 days gestation, were killed by cervical dislocation. The embryos were removed under aseptic conditions and the brains quickly excised and placed in Hank's balanced salt solution (HBSS, Gibco) at ambient room temperature (18-22° C.). The hippocampi were dissected out and chopped into fragments (˜2 mm^3) and transferred into an enzyme solution containing (in mM): NaCl 116, KCl 5.4, NaHCO3 26, NaH2PO4 1, CaCl2 1.5, MgSO4 1, EDTA 0.5, glucose 25, cysteine 1, and papain 20 U/ml (Sigma) and incubated at 37° C., 5% CO2, 100% relative humidity for 1 hr. Tissue fragments were washed in HBSS containing 1 mg/ml of bovine serum albumin (BSA) and 1 mg/ml of ovomucoid (both Sigma). Tissue was transferred into a further 3-4 ml of this solution and gently triturated into a single cell suspension using a fire-polished Pasteur pipette. The single cell suspension was layered on to 5 ml HBSS containing 10 mg/ml of BSA and 10 mg/ml of ovomucoid and centrifuged at 100× g for 10 min. […]\nAgonist evoked membrane currents were recorded from hippocampal neurons using the whole cell configuration of the patch-clamp technique. […] Agonist-evoked whole cell currents were measured at their peak. Responses in the presence of drugs expressed as the arithmetic mean ±SEM of responses in the absence (control) or drugs."}, "[3]": {"conditions": "absence or presence of 3 μM and 10 μM (+)-bicuculline, FIG. 5"}}, "data": [{"smiles": "CCn1cc(C(=O)O)c(=O)c2cc(NC3CCCc4ccccc43)c(Cl)cc21", "note": "(stereo not shown) [compound 3, 7-chloro-1-ethyl-6-(1,2,3,4-tetrahydronaphthyl-1-amino)-4-oxo-1,4-dihydroquinoline-3-carboxylic acid]", "values": [{"measurement": "interaction with 5α,20α-diol inhibition of [35S]TBPS binding (neurosteroid site)", "setting": "[1]; 10 μM compound 3 or 100 nM 3α,5α-P, rat cortex, FIG. 8", "value": "does not act directly on the neurosteroid site of the GRC"}, {"measurement": "effect on [35S]TBPS binding in absence or presence of norfloxacin", "setting": "[1]; 30 μM and 100 μM norfloxacin, rat cortex, FIG. 9", "value": "does not act directly at the same site as the antibacterial quinolone norfloxacin"}, {"measurement": "effect on [35S]TBPS binding in absence or presence of Ro5-4864 (4′-chlorodiazepam)", "setting": "[1]; 0.3, 1 and 30 μM Ro5-4864, rat cortex, FIG. 11", "value": "does not act directly at the same site as 4′-chlorodiazepam"}, {"measurement": "dependence on GABA of the effect on [35S]TBPS binding", "setting": "[1]; [3]", "value": "absolute dependence of compound 3 on GABA for efficacy"}, {"measurement": "site of action relative to the [35S]TBPS site", "setting": "[1]; [3]", "value": "allosterically coupled to and does not act directly on the [^35S]TBPS site"}, {"measurement": "dissociation of [35S]TBPS binding in absence or presence of pentobarbital", "setting": "[1]; initiated by 10 μM compound 3, 30 μM pentobarbital, rat cortex, FIG. 10", "value": "do not share a common site of action"}, {"measurement": "potentiating effect on GABA induced chloride currents", "setting": "[2]", "value": "positive efficacy modulator of GABA-gated chloride channels"}]}]}
